The source of these data is patent publication US4594425A, “Heterocyclic compounds as antiallergic agents” (American Home Products Corporation, priority 1984, dated 1986).

Test [1] has as its system LTD4 induced bronchoconstriction. The experiment in a line: in vivo inhibition of bronchospasm induced in guinea pigs by exogenously administered LTD4. Particulars: 50 mg/kg intraduodenal, 10 minutes before LTD4, average of 6 experiments. Details: species or system guinea pig (male Hartley). As for the experimental part: The assay of this Example measures the in vivo ability of the compounds of the invention to inhibit the bronchospasm induced in guinea pigs by the exogenously administered leukotrienes C4 and/or D4. This assay is essentially a measure of the SRS-A antagonist properties of the compounds tested.
This assay is carried out as follows:
Male Hartley strain guinea pigs (350-600 g) are anesthetized with pentobarbital sodium (50 mg/kg, i.p.). The jugular vein is cannulated for injection of drugs and the carotid artery for monitoring blood prerssure. The trachea is cannulated for artificial ventilation by a miniature Starling pump and for indirect measurement of respiratory volume changes as described infra. Additional pentobarbital sodium (15 mg/kg, i.v.) is administered to arrest spontaneous respiration. Submaximal bronchoconstrictor responses are established in control animals by varying the dose-levels of leukotriene. Intravenous dose-levels of LTC4 range from 1 to 2 μg/kg and for LTD4 the range is from 0.3 to 1 μg/kg. The aerosol bronchoprovocation dose for LTC4 is generated from 1.6 μM solution and for LTD4 from a 2.0 μM solution.
Test drugs are administered either intravenously, by aerosol or orally at 1 or 10 minutes before induction of bronchospasm by administration of either LTC4 or LTD4 at the predetermined dose-levels. Aerosols of soluble drugs or leukotrienes are produced in-line for 10 seconds only by actuation of an ultrasonic nebulizer (Monaghan). Aerosolized drug dosage is expressed in terms of solution concentration and by a fixed aerosol exposure time (approximately 10 seconds). Control animals receive saline in place of drug.
Respiratory volume changes are determined by a calibrated piston whose travel is recorded, via a linear transducer, on a Beckman Dynograph recorder. Maximal bronchoconstrictor volume is determined by clamping off the trachea at the end of the experiment. Overflow volumes at 3 and 5 minutes are obtained from the recorded charts.
The overflow volume at 3 and 5 minutes is expressed as a percentage of maximal bronchoconstriction. Combined group values are used from each of these time intervals to determine the inhibitory effect of drugs. [formula] Students t-test for unpaired data is used to determine statistical significance. Dose response curves are generated and ED50 doses are interpolated from the regression lines.
Results for compounds of the invention in this assay, using LTD4 for induction of bronchospasm, are given below: […]

The subject of test [2] is synthesis of LTB4 by rat glycogen-elicited polymorphonuclear leukocytes (lipoxygenase). Kind of test: inhibition of LTB4 (5,12-diHETE) synthesis by rat glycogen-elicited polymorphonuclear leukocytes. Particulars: Leukocyte; rat PMN, A23187 10 μM, [14C] arachidonic acid, 37° C.; read-out: 50% Inhibitory Concentration (IC50) LTB4. In kind it is cell-based, rat (Wistar). As for the experimental part:
(§1) This is especially true with respect to 5,12-diHETE, which is also denoted as LTB4 [see Ford-Hitchinson, J. Roy. Soc. Med., 74, 831 (1981)]. The assay of this Example measures the ability of the compounds of the invention to inhibit the synthesis of 5-HETE and LTB4 by rat glycogen-elicited polymorphonuclear leukocytes.
(§2) The assay is carried out as follows:
(§3) Peritoneal PMN are obtained from female Wistar rats (150-250 g) that received an i.p. injection of 6% glycogen (10 ml). After 24 hours, rats are killed by CO2 asphyxiation and peritoneal cells are harvested by peritoneal lavage using Ca^++ and Mg^++ free Hanks' balanced salt solution (HBSS). The peritoneal exudate is centrifuged at 400 g for 10 minutes. After centrifugation, the lavaged fluid is removed and the cell pellet is resuspended in HBSS containing Ca^++ and Mg^++ and 10 mM L-cysteine at a concentration of 2×10^7 cells/ml. To 1 ml portions of cell suspension, test drugs or vehicle are added and incubated at 37° C. for 10 minutes. Following this preincubation, the calcium ionophore (10 μM), A23187, is added together with 0.5 μCi [^14 C] arachidonic acid and further incubated for 10 minutes. The reaction is stopped by the addition of ice cold water (3 ml) and acidifying to pH 3.5. Lipoxygenase products are then extracted twice into diethyl ether. The pooled ether extracts are evaporated to dryness under nitrogen and the residue is redissolved in a small volume of methanol and spotted on aluminum backed pre-coated thin layer chromatographic plates. The samples are then co-chromatographed with authentic reference 5-HETE, 12-HETE and 5,12-diHETE in the solvent system-hexane:ether:acetic acid (50:50:3). After chromatography, the areas associated with 5-HETE and 5,12-diHETE standards are identified by autoradiography, cut out and quantitated by liquid scintillation.
(§4) Results are expressed as % inhibition of [^14 C]5-HETE and [^14 C]LTB4 (5,12-HETE) synthesis. [formula]
(§5) Testing compounds of the invention in this assay and using the antioxident 3-amino-1-[m-(trifluoromethyl)phenyl]-2-pyrazoline (BW755C) as a standard, the following results are obtained.

Test [3] relates to ovalbumin induced bronchospasm mediated by endogenous products of the lipoxygenase oxidation of arachidonic acid. The experiment in a line: in vivo inhibition of ovalbumin induced bronchospasm in sensitized guinea pigs (endogenous mediators). Details: species or system guinea pig (male Hartley). Particulars: 50 mg/kg intraduodenal, 10 minutes before ovalbumin challenge, average of 6 experiments.

Test [4] relates to synthesis of 5-HETE by rat glycogen-elicited polymorphonuclear leukocytes (lipoxygenase). The experiment in a line: inhibition of 5-HETE synthesis by rat glycogen-elicited polymorphonuclear leukocytes. The class given is cell-based, rat (Wistar). Particulars: Leukocyte; rat PMN, A23187 10 μM, [14C] arachidonic acid, 37° C.; read-out: 50% Inhibitory Concentration (IC50) 5-HETE. As for the experimental part:
as §1, §2, §3, §4, §5

Structures are written as SMILES.

Consider `COC(=O)CCC(=O)Nc1cccc(OCc2nc3ccccc3s2)c1` [Example 1, 4-[[3-[(2-benzthiazolyl)methoxy]phenyl]amino]-4-oxobutanoic acid, methyl ester], for which the figures for the “% Inhibition (Statistical Average), Overflow Volume at 3 min.” value (shortened to “% Inhibition … at 3 min.”) in test [1] and in test [3] were 33% and 68%, respectively. For the same molecule, the figures for the “% Inhibition (Statistical Average), Overflow Volume at 5 min.” value (from here on “% Inhibition … at 5 min.”) in test [1] and in test [3] were 41% and 49%, respectively. For the same molecule, the values for the IC50 in test [2] and in test [4] were 26 µM and 15.7 µM, respectively.
For the molecule `NC1=NN(c2cccc(C(F)(F)F)c2)CC1` [BW755C, 3-amino-1-[m-(trifluoromethyl)phenyl]-2-pyrazoline, reference compound], the results for the IC50 in test [2] and in test [4] were 30 µM and 43 µM, respectively.
As to `COC(=O)CC(=O)Nc1cccc(OCc2nc3ccccc3n2C)c1` [Example 2d, 3-[[3-[(1-methyl-2-benzimidazolyl)methoxy]phenyl]amino]-3-oxopropanoic acid, methyl ester], in test [1], the “% Inhibition … at 3 min.” value amounted to 62% and the “% Inhibition … at 5 min.” value is 59%.
With `COC(=O)CCC(=O)Nc1cccc(OCc2cc3ccccc3o2)c1` [Example 3, 4-[[3-[(2-benzofuranyl)methoxy]phenyl]amino]-4-oxobutanoic acid, methyl ester], the IC50 in test [2] was 27.3 µM; in test [4] it was 17.9 µM.
For `COC(=O)CCC(=O)Nc1cccc(OCc2nc3ccccc3n2C)c1` [Example 2b, 4-[[3-[(1-methyl-2-benzimidazolyl)methoxy]phenyl]amino]-4-oxobutanoic acid, methyl ester], in test [1], the “% Inhibition … at 3 min.” value is 82% and the “% Inhibition … at 5 min.” value was found to be 82%. Moreover, in test [3], the “% Inhibition … at 3 min.” value is recorded as 54% and the “% Inhibition … at 5 min.” value turned out to be 49%.
On to `COC(=O)CCC(=O)N(O)c1cccc(OCc2nc3ccccc3s2)c1` [Example 6, 4-[[3-[(2-benzthiazolyl)methoxy]phenyl]hydroxylamino]-4-oxobutanoic acid, methyl ester], for which the “% Inhibition … at 3 min.” value in test [1] is recorded as 78%. In test [1], the “% Inhibition … at 5 min.” value is recorded as 78%. In addition, the IC50 was 0.49 µM in test [2] and 0.36 µM in test [4].
Regarding `COC(=O)CCC(=O)Nc1cccc(OCc2nc3ccccc3o2)c1` [Example 2a, 4-[[3-[(2-benzoxazolyl)methoxy]phenyl]amino]-4-oxobutanoic acid, methyl ester], the IC50 in test [2] is 65.5 µM; in test [4] it was 69.7 µM.
With `COC(=O)CC(=O)Nc1cccc(OCc2nc3ccccc3s2)c1` [Example 2c, 3-[[3-[(2-benzthiazolyl)methoxy]phenyl]amino]-3-oxopropanoic acid, methyl ester], in test [1], the “% Inhibition … at 3 min.” value was found to be 77% and the “% Inhibition … at 5 min.” value was 76%.
